Experiments:
Type in all cases: functional
Parameters in all cases: concentration or dose not given beside the values
[1] = tested on: Plasmodium berghei; experiment: MMV: P. berghei-infected blood was withdrawn from mice by cardiac pucture before being immediately added to ookinete culture medium containing test compounds. 26 hr later, GFP-positive ookinetes were identified and counted by automated microscopy. All compounds were tested in 4 independent experiments and data presented here is the mean.
[2] = tested on: Plasmodium falciparum; experiment: MMV: P. falciparum NF54 functionally mature Stage V gametocytes were incubated for 24 hr in the presence of the test compounds. Gamete formation was then triggered by addition of 2uM xantheurenic acid and temperature decrease to ~20C. Female gamete formation was recorded 24 hr later by automated microscopy detection of surface labelling of female gametes with a Cy3-conjugated antibody reactive to Pfs25. All compounds were tested in 4 independent experiments and data presented here is the mean.; settings: NF54, 24 h
[3] = tested on: Plasmodium falciparum; experiment: MMV: P. falciparum NF54 functionally mature Stage V gametocytes were incubated for 24 hr in the presence of the test compounds. Gamete formation was then triggered by addition of 2uM xantheurenic acid and temperature decrease to ~20C. Male gamete exflagellation was recorded and analysed by automated microscopy after 20 min. All compounds were tested in 4 independent experiments and data presented here is the mean.

Cc1cc(NC(=O)c2cccc(C(F)(F)F)c2)n(-c2nc(-c3ccc4c(c3)OCO4)cs2)n1
inhibition [1]: -1.403% | inhibition [2]: 17.1% | inhibition [3]: 11.3%

COc1ccccc1CNC(=O)CCn1c(=O)[nH]c2ccsc2c1=O
inhibition [1]: -0.4809% | inhibition [2]: -26.3% | inhibition [3]: 22.3%

COc1cccc(NC(=O)Cn2c(C)c(C#N)c3ccccc32)c1
inhibition [1]: -1.894% | inhibition [2]: -23.6% | inhibition [3]: 21.9%

CCCCCC(=O)N1c2ccccc2N=C2CC(c3ccc(OC)c(OC)c3)CC(O)=C2C1c1ccc(C(F)(F)F)cc1 (stereo not given)
inhibition [1]: -9.202% | inhibition [2]: -11.5% | inhibition [3]: 59.4%

COc1cc2c3cc1Oc1c(OC)c(OC)cc4c1C(Cc1ccc(O)c(c1)Oc1ccc(cc1)CC3N(C)CC2)N(C)CC4.Cl (stereo not given)
inhibition [1]: -16.79% | inhibition [2]: -37.2% | inhibition [3]: -64.1%

O=C(Nc1ccc(Br)cc1)Nc1cccc(Cl)c1
inhibition [1]: -16.14% | inhibition [2]: -16.5% | inhibition [3]: 24.2%

CCOc1cc(Cl)c(C(C)NC(=O)c2ccccc2)cc1OCC (stereo not given)
inhibition [1]: -7.982% | inhibition [2]: -37% | inhibition [3]: 32.8%

COc1cc(CNCCc2ccc(Cl)cc2)cc(OC)c1O
inhibition [1]: -10.96% | inhibition [2]: -40.5% | inhibition [3]: -14.1%

CCC1(C)CC(CCNCc2ccccc2O)(c2ccc(C)cc2)CCO1 (stereo not given)
inhibition [1]: -38.74% | inhibition [2]: 7.59% | inhibition [3]: -6.89%

CC(C)(C)CC(C)(C)NCC(O)COc1ccc(Cl)cc1Cl (stereo not given)
inhibition [1]: -15.58% | inhibition [2]: -45.2% | inhibition [3]: -10.7%

O=C(NNc1cc(N2CCCC2)nc(N2CCCC2)n1)c1ccccc1
inhibition [1]: 26.51% | inhibition [2]: -28.5% | inhibition [3]: 30.4%

OC(CNCC1CCCO1)Cn1c2ccc(Cl)cc2c2cc(Cl)ccc21 (stereo not given)
inhibition [1]: 3.62% | inhibition [2]: -43.4% | inhibition [3]: -34.5%

COc1cccc(C(=O)Nc2ccc(-c3nc4ccccc4[nH]3)cc2)c1
inhibition [1]: 18.46% | inhibition [2]: 1.53% | inhibition [3]: 24%

Cc1ccc(C(=O)c2oc3ccc4c(C)cc(=O)oc4c3c2C)cc1
inhibition [1]: -19.35% | inhibition [2]: -29.5% | inhibition [3]: -7.03%

COc1cc(OC)cc(N2C(=O)N(Cc3ccc(C(C)(C)C)cc3)c3ccccc3S2(=O)=O)c1
inhibition [1]: -1.934% | inhibition [2]: -7.89% | inhibition [3]: 8.32%

CCCCOc1ccc(C(=O)Nc2cc(C)on2)cc1
inhibition [1]: 1.333% | inhibition [2]: -26.5% | inhibition [3]: 47.5%

Cc1cc(N2CCCC2)nc(Nc2ccc(NC(=O)CCc3ccccc3)cc2)n1
inhibition [1]: -8.954% | inhibition [2]: -8.07% | inhibition [3]: -19.1%

O=C(NC1CCN(Cc2ccccc2)CC1)c1cc(-c2cccnc2)nc2ccc(Cl)cc12
inhibition [1]: -13.2% | inhibition [2]: -32.7% | inhibition [3]: -6.01%

CCC(O)c1ccc(Br)cc1NC(=O)c1cccc(Cl)c1 (stereo not given)
inhibition [1]: -8.417% | inhibition [2]: -44% | inhibition [3]: 4.9%

Cc1ccc(CSCc2ccc(C(=O)NC3CC3)o2)cc1
inhibition [1]: 11.64% | inhibition [2]: -29.1% | inhibition [3]: 34.4%

CC(C)CCNCC(O)Cn1c2ccccc2c2ccccc21.Cl (stereo not given)
inhibition [1]: 4.97% | inhibition [2]: -12.9% | inhibition [3]: -10.1%

COc1ccc(-n2ccnc2SCC(=O)Nc2cc(C)ccc2C)c(OC)c1
inhibition [1]: -11.96% | inhibition [2]: -9.31% | inhibition [3]: 12%

O=C(Nc1ccc(N2CCCCC2)c(Cl)c1)c1ccc(Br)o1
inhibition [1]: 4.656% | inhibition [2]: -35.3% | inhibition [3]: 41.2%

CCC(=O)Nc1nnc(Cc2ccc(OC)c(OC)c2)s1
inhibition [1]: -4.332% | inhibition [2]: -4.58% | inhibition [3]: 19.9%

O=C(Nc1ccc(-c2nc3cc4ccccc4cc3[nH]2)cc1)c1cccc(Br)c1
inhibition [1]: -21.87% | inhibition [2]: -0.0992% | inhibition [3]: 30.7%

Cc1cc(N2CCN(C3CCCC3)CC2)n2c(nc3ccccc32)c1C#N
inhibition [1]: -5.169% | inhibition [2]: -12.2% | inhibition [3]: 6.61%

COc1cc(-c2nc(-c3ccc(Sc4ccccc4)cc3)c(-c3ccccc3)[nH]2)cc(OC)c1O
inhibition [1]: -6.549% | inhibition [2]: -13.7% | inhibition [3]: 13.5%

C[n+]1c2ccccc2nc2ccc(NCCO)cc21
inhibition [1]: 4.233% | inhibition [2]: -21.5% | inhibition [3]: 33.8%

CN1CCN(c2ncnc3c2[nH]c2ccc(Cl)cc23)CC1
inhibition [1]: -3.248% | inhibition [2]: 6.75% | inhibition [3]: -2.21%

Cl.N=c1n(CCN2CCCCC2)c2ccccc2n1CC(O)c1cccc(Br)c1 (stereo not given)
inhibition [1]: -14.54% | inhibition [2]: -26.6% | inhibition [3]: -19.3%

O=C(Nc1ccc(Cl)cc1C(=O)Nc1ccncc1)c1ccc(Cl)cc1Cl
inhibition [1]: 36.2% | inhibition [2]: 9.34% | inhibition [3]: 7.46%

CCN(CC)c1cc(C)c2cc(NC(=O)c3cccc(OC)c3)ccc2n1
inhibition [1]: -7.501% | inhibition [2]: -22.1% | inhibition [3]: -1.32%

CCN(CC)CCNc1ccnc2cc(Cl)ccc12
inhibition [1]: -23.67% | inhibition [2]: -29.9% | inhibition [3]: -16.3%

COc1ccc2nc(N)nc(C)c2c1
inhibition [1]: -8.497% | inhibition [2]: 6.91% | inhibition [3]: 45.7%

CCOC(=O)c1c(NC(=O)c2ccccc2)sc2c(O)c(CN(CC)CC)ccc12
inhibition [1]: -23.17% | inhibition [2]: -19.6% | inhibition [3]: 51%

CCn1c(SCC(=O)Nc2cc(C(F)(F)F)ccc2Cl)nc2ccccc2c1=O
inhibition [1]: -2.806% | inhibition [2]: -19.5% | inhibition [3]: 22.5%

CCC(C)NCC(O)(c1ccc(Cl)cc1)c1ccc(Cl)cc1 (stereo not given)
inhibition [1]: 2.874% | inhibition [2]: -7.82% | inhibition [3]: 25.7%

CN(N=O)C1=C(NC2CCCCC2)C(=O)c2ccccc2C1=O
inhibition [1]: -8.019% | inhibition [2]: -27.6% | inhibition [3]: 10.5%

CCOc1ccc(-n2cc(-c3ccccc3)c3c(SCc4cc(C)ccc4C)ncnc32)cc1
inhibition [1]: -4.1% | inhibition [2]: -11.5% | inhibition [3]: 13%

COc1cc2cc(C(=O)Nc3ccccc3)c(N)nc2cc1OC
inhibition [1]: 8.567% | inhibition [2]: -10% | inhibition [3]: 22%

CCOc1cc2c(cc1OCC)C(c1cc(OC)c(O)cc1Cl)NCC2 (stereo not given)
inhibition [1]: -21.67% | inhibition [2]: -6.96% | inhibition [3]: 19.6%

O=C(Nc1cccc(C2=NCCN2)c1)Nc1cccc(C2=NCCN2)c1 [IMIDOCARB]
inhibition [1]: -13.35% | inhibition [2]: -30.2% | inhibition [3]: -36.7%

Cl.OC(CNCc1ccccc1)Cn1c2ccccc2c2ccccc21 (stereo not given)
inhibition [1]: 3.967% | inhibition [2]: 11.4% | inhibition [3]: -10.2%

O=[N+]([O-])c1ccc(C=NNc2nc3ccccc3[nH]2)cc1
inhibition [1]: -19.94% | inhibition [2]: -17% | inhibition [3]: 18.3%

COCCNC(=O)c1ccc(OC2CCN(Cc3ccc(F)c(F)c3)CC2)c(Cl)c1
inhibition [1]: -5.71% | inhibition [2]: -14.3% | inhibition [3]: 16.4%

CC(C)OCc1cc(CN2CCN(c3cccc(Cl)c3)CC2)c(O)c2ncccc12
inhibition [1]: 5.6% | inhibition [2]: -27.4% | inhibition [3]: 10.1%

CC1CC(C)CN(C(=O)c2ccc(Cl)cc2Cl)C1 (stereo not given)
inhibition [1]: -6.319% | inhibition [2]: -18.2% | inhibition [3]: 30.8%

COc1ccc(-c2c(C)nn3c(N)c(C#N)cnc23)cc1OC
inhibition [1]: 6.903% | inhibition [2]: -16.8% | inhibition [3]: -13.8%

COc1ccc(CCN2CCC(CN(C)Cc3cnn(-c4ccccc4)c3)CC2)cc1
inhibition [1]: -8.146% | inhibition [2]: -27.5% | inhibition [3]: -4.67%

CCOc1ccc2nc(C)cc(Nc3ccc(Br)cc3)c2c1
inhibition [1]: -16.41% | inhibition [2]: -27.4% | inhibition [3]: -29.1%

CCCC(c1nnnn1C1CCCCC1)N1CCN(C(=O)c2ccco2)CC1.Cl (stereo not given)
inhibition [1]: -10.21% | inhibition [2]: -48.5% | inhibition [3]: 23.7%

CCOc1ccccc1NC(=O)CN1CCN(C(=O)c2ccco2)CC1
inhibition [1]: -13.05% | inhibition [2]: 12.9% | inhibition [3]: 19.3%

O=C(O)C(=O)O.Oc1ccccc1CN1CCN(C(c2ccccc2)c2ccccc2)CC1
inhibition [1]: 19.05% | inhibition [2]: -11.9% | inhibition [3]: 23.5%

OC(Cn1nnc2ccccc21)Cn1c2ccc(Br)cc2c2cc(Br)ccc21 (stereo not given)
inhibition [1]: -0.4033% | inhibition [2]: -23.3% | inhibition [3]: 33.4%

Cc1cc(C=C2SC(=Nc3ccccc3)N(C3CCCC3)C2=O)c(C)n1-c1ccc(Cl)cc1
inhibition [1]: -28.39% | inhibition [2]: -30.5% | inhibition [3]: 31.4%

COc1ccc(Br)cc1C1Nc2ccc3ccccc3c2C2=C1C(=O)CC(c1ccccc1)C2 (stereo not given)
inhibition [1]: -18.54% | inhibition [2]: -13.2% | inhibition [3]: 9.97%

CCOc1c(Br)cc(C2C(C(=O)OC)=CN(C)C=C2C(=O)OC)cc1OC
inhibition [1]: -9.574% | inhibition [2]: 4.74% | inhibition [3]: 8.8%

Cc1c(C)n(Cc2ccc(F)cc2)c2ccc(C(=O)NCc3ccco3)cc12
inhibition [1]: 17.74% | inhibition [2]: -40.2% | inhibition [3]: 49.7%

O=C(NC1CCN(Cc2ccccc2)CC1)c1cc(-c2ccncc2)nc2ccc(Cl)cc12
inhibition [1]: -9.022% | inhibition [2]: -10.1% | inhibition [3]: -6.34%

Cc1nc2ccccc2c(O)c1CC=C(Cl)Cl
inhibition [1]: 2.285% | inhibition [2]: -3.75% | inhibition [3]: 6.46%

CCOc1ccc(Nc2c3ccccc3nc3ccccc23)cc1.Cl
inhibition [1]: 63.73% | inhibition [2]: -9.14% | inhibition [3]: 21.7%

Cn1c(=O)c2cc(C(=O)NCCCN3CCCCCC3)sc2c2ccccc21
inhibition [1]: 5.415% | inhibition [2]: -16.3% | inhibition [3]: 20.7%

COc1ccc(-c2nonc2NC(=O)c2cccc(Cl)c2)cc1OC
inhibition [1]: -15.75% | inhibition [2]: 12% | inhibition [3]: 18.1%

CCN(Cc1ccccc1)C1CCN(Cc2cc(Br)ccc2O)CC1.O=C(O)C(=O)O
inhibition [1]: 11.31% | inhibition [2]: -4.68% | inhibition [3]: 7.05%

COc1ccc(Nc2nc(NCc3ccccc3)c3ccccc3n2)cc1
inhibition [1]: -12.84% | inhibition [2]: -14.7% | inhibition [3]: -30.2%
